Experimental data reported in patent US10668028B2, “Methods and use of inducing apoptosis in cancer cells” (Berg LLC, priority 2008, dated 2020).

How the values were obtained:
Bcl-2 protein = conditions: melanoma; cited from earlier work
human melanoma tumors = experiment: histopathology analysis of human melanoma (Skmel-28) tumors induced in nude athymic mice; assay type: in vivo; conditions: topical application for 30 days, H & E or S-100 stain
Procedure: Skmel-28 cells were grown in 5% serum supplemented DMEM/F12 medium to 80% confluency. The cells were trypsinized and pelleted using a centrifuge. The pellets were then resuspended in cold PBS. The subjects for this study were nude athymia mice. Each subject received two injections of the cell suspension on the dorsal region of the mouse. After a visual assessment of the establishment of a tumor, treatment with a topical application would commence. After 30 days of treatment, the tumors were excised from the mice and placed in formalin. Each tumor sample was embedded in paraffin and sliced using a microtome. The slides underwent an H & E or S-100 stain. These samples were than analyzed by a pathologist to assess the vascular integrity of the tumor.

COC1=C(OC)C(=O)C(C/C=C(\C)CC/C=C(\C)CC/C=C(\C)CC/C=C(\C)CC/C=C(\C)CC/C=C(\C)CC/C=C(\C)CC/C=C(\C)CC/C=C(\C)CCC=C(C)C)=C(C)C1=O [CoQ10, 2,3-dimethoxy-5-methyl-6-decaprenyl-1,4-benzoquinone]
Bcl-2 protein level (Bcl-2 protein): downregulation of the Bcl-2 protein
tumor pathology / vascular integrity of the tumor (human melanoma tumors): disruption in tumor vasculature
